Values joined by “and” are separate entries in the source; they are usually repeats but may differ in a detail not shown here. Equal values may be shown once. Toxic doses and inconclusive results are not listed. No stated cut-off is given here; in the data, active means T/C of 150% or more; inactive means T/C below 125%.
Tested on: L1210 leukemia ip in BDF1 mice, survival T/C
Assay: NCI In Vivo Anticancer Drug Screen. Data for tumor model L1210 Leukemia (intraperitoneal) in B6D2F1 (BDF1) mice
Settings: endpoint: mean survival time, higher = longer survival
Summary of the method: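 Antitumor effect is assessed in tumor-bearing animals. Survival in the compound arm is compared with a vehicle-dosed control arm and expressed as their quotient.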

[1] = dose: 100.0 mg/kg/injection, schedule: Q01DX001 (ip), vehicle: saline with Tween-80
[2] = dose: 100.0 mg/kg/injection, schedule: Q04DX003 (ip), vehicle: saline with Tween-80
[3] = dose: 200.0 mg/kg/injection, schedule: Q01DX001 (ip), vehicle: saline with Tween-80
[4] = dose: 200.0 mg/kg/injection, schedule: Q04DX003 (ip), vehicle: saline with Tween-80
[5] = dose: 400.0 mg/kg/injection, schedule: Q04DX003 (ip), vehicle: saline with Tween-80
[6] = dose: 100.0 mg/kg/injection, schedule: Q01DX001 (ip), vehicle: carboxymethylcellulose (CMC)
[7] = dose: 200.0 mg/kg/injection, schedule: Q01DX001 (ip), vehicle: carboxymethylcellulose (CMC)
[8] = dose: 400.0 mg/kg/injection, schedule: Q01DX001 (ip), vehicle: carboxymethylcellulose (CMC)
[9] = dose: 100.0 mg/kg/injection, schedule: Q01DX001 (ip), vehicle: saline
[10] = dose: 200.0 mg/kg/injection, schedule: Q01DX001 (ip), vehicle: saline
[11] = dose: 400.0 mg/kg/injection, schedule: Q01DX001 (ip), vehicle: saline
[12] = dose: 100.0 mg/kg/injection, schedule: Q04DX003 (ip), vehicle: saline
[13] = dose: 200.0 mg/kg/injection, schedule: Q04DX003 (ip), vehicle: saline
[14] = dose: 100.0 mg/kg/injection, schedule: Q01DX001 (ip), vehicle: Klucel (hydroxypropylcellulose) (HPC)
[15] = dose: 200.0 mg/kg/injection, schedule: Q01DX001 (ip), vehicle: Klucel (hydroxypropylcellulose) (HPC)
[16] = dose: 400.0 mg/kg/injection, schedule: Q01DX001 (ip), vehicle: Klucel (hydroxypropylcellulose) (HPC)
[17] = dose: 100.0 mg/kg/injection, schedule: Q04DX002 (ip), vehicle: Klucel (hydroxypropylcellulose) (HPC)
[18] = dose: 200.0 mg/kg/injection, schedule: Q04DX002 (ip), vehicle: Klucel (hydroxypropylcellulose) (HPC)
[19] = dose: 400.0 mg/kg/injection, schedule: Q04DX002 (ip), vehicle: Klucel (hydroxypropylcellulose) (HPC)
[20] = dose: 100.0 mg/kg/injection, schedule: Q04DX003 (ip), vehicle: Klucel (hydroxypropylcellulose) (HPC)
[21] = dose: 200.0 mg/kg/injection, schedule: Q04DX003 (ip), vehicle: Klucel (hydroxypropylcellulose) (HPC)
[22] = dose: 400.0 mg/kg/injection, schedule: Q04DX003 (ip), vehicle: Klucel (hydroxypropylcellulose) (HPC)

Measured: T/C

CNC(=S)Nc1c(C)cc(C)cc1C
inactive: dose: 25.0 mg/kg/injection, schedule: Q01DX009 (ip), vehicle: saline with Tween-80 98 % of control and 108 % of control | dose: 50.0 mg/kg/injection, schedule: Q01DX001 (ip), vehicle: saline with Tween-80 100 % of control | dose: 50.0 mg/kg/injection, schedule: Q01DX009 (ip), vehicle: saline with Tween-80 98 % of control and 105 % of control | [1] 91 % of control | dose: 100.0 mg/kg/injection, schedule: Q01DX009 (ip), vehicle: saline with Tween-80 97 % of control and 92 % of control | dose: 100.0 mg/kg/injection, schedule: Q04DX002 (ip), vehicle: saline with Tween-80 104 % of control and 106 % of control | [2] 104 % of control | [3] 96 % of control | dose: 200.0 mg/kg/injection, schedule: Q04DX002 (ip), vehicle: saline with Tween-80 96 % of control | [4] 94 % of control | [5] 95 % of control

Cc1ccc(NP(Br)(c2ccccc2)(c2ccccc2)c2ccccc2)cc1
inactive: dose: 75.0 mg/kg/injection, schedule: Q01DX001 (ip), vehicle: acetone 95 % of control

CC(=O)Nc1cccc(OCCCOc2ccc([N+](=O)[O-])cc2)c1
inactive: [6] 95 % of control | [7] 101 % of control | [8] 90 % of control

CC1(C)C2(C)CC12C (configuration not stated)
inactive: dose: 2.5 mg/kg/injection, schedule: Q01DX009 (ip), vehicle: saline 92 % of control | dose: 5.0 mg/kg/injection, schedule: Q01DX009 (ip), vehicle: saline 91 % of control | dose: 10.0 mg/kg/injection, schedule: Q01DX009 (ip), vehicle: saline 87 % of control

CC(C)c1nnnn1C12CC3CC(CC(C3)C1)C2
inactive: [9] 101 % of control | [10] 101 % of control | [11] 93 % of control

O=NN(C(=O)Nc1ccccc1)c1ccccc1
inactive: dose: 2.0 mg/kg/injection, schedule: Q01DX001 (ip), vehicle: carboxymethylcellulose (CMC) 106 % of control | dose: 4.0 mg/kg/injection, schedule: Q01DX001 (ip), vehicle: carboxymethylcellulose (CMC) 112 % of control | dose: 6.0 mg/kg/injection, schedule: Q01DX001 (ip), vehicle: carboxymethylcellulose (CMC) 112 % of control | dose: 8.0 mg/kg/injection, schedule: Q01DX001 (ip), vehicle: carboxymethylcellulose (CMC) 110 % of control | dose: 10.0 mg/kg/injection, schedule: Q01DX001 (ip), vehicle: carboxymethylcellulose (CMC) 104 % of control | dose: 12.5 mg/kg/injection, schedule: Q01DX001 (ip), vehicle: carboxymethylcellulose (CMC) 108 % of control | dose: 25.0 mg/kg/injection, schedule: Q01DX001 (ip), vehicle: carboxymethylcellulose (CMC) 100 % of control | dose: 50.0 mg/kg/injection, schedule: Q01DX001 (ip), vehicle: carboxymethylcellulose (CMC) 102 % of control | [6] 108 % of control

CCCCCCCCCCCCCCCCCC1=Nc2ccccc2NC(=O)C1
inactive: [6] 98 % of control | [7] 98 % of control | [8] 93 % of control

CN(C(=O)COc1ccc([N+](=O)[O-])cc1Cl)c1ccc(S(=O)(=O)F)cc1
inactive: [12] 104 % of control | [13] 95 % of control | dose: 400.0 mg/kg/injection, schedule: Q04DX003 (ip), vehicle: saline 96 % of control

Cc1ccc(-c2ccns2)cc1
inactive: dose: 50.0 mg/kg/injection, schedule: Q04DX003 (ip), vehicle: saline 105 % of control | [9] 100 % of control | [12] 108 % of control | [10] 104 % of control | [13] 103 % of control | [11] 104 % of control

O=C(SCCNC(=O)N1CCCCC1)Sc1ccccc1
inactive: [2] 105 % of control | [4] 101 % of control | [5] 114 % of control

Nc1cccc2c1ccc1ccc3ccccc3c12
inactive: [14] 103 % of control | [15] 101 % of control | [16] 108 % of control

COc1ccc(C(=O)/C=C/c2cccc(OCc3ccccc3)c2)cc1
inactive: dose: 25.0 mg/kg/injection, schedule: Q04DX002 (ip), vehicle: Klucel (hydroxypropylcellulose) (HPC) 102 % of control | dose: 50.0 mg/kg/injection, schedule: Q04DX002 (ip), vehicle: Klucel (hydroxypropylcellulose) (HPC) 91 % of control | [17] 102 % of control | [18] 92 % of control | [19] 103 % of control

CC(C)c1ccc2c(c1)CC[C@H]1[C@](C)(C(=O)O)CCC[C@]21C
inactive: [1] 101 % of control | [3] 105 % of control | dose: 400.0 mg/kg/injection, schedule: Q01DX001 (ip), vehicle: saline with Tween-80 105 % of control

Cc1ccc(C(C)(C#N)Nc2ccccc2)cc1 (configuration not stated)
inactive: [14] 88 % of control | [20] 105 % of control | [15] 91 % of control | [21] 95 % of control | [16] 92 % of control | [22] 105 % of control

NS(=O)(=O)c1ccccc1
inactive: dose: 100.0 mg/kg/injection, schedule: Q04DX002 (ip), vehicle: saline 105 % of control | [20] 101 % of control | dose: 200.0 mg/kg/injection, schedule: Q04DX002 (ip), vehicle: saline 105 % of control | [21] 103 % of control | dose: 400.0 mg/kg/injection, schedule: Q04DX002 (ip), vehicle: saline 109 % of control | [22] 92 % of control

O=C1c2ccccc2C(=O)N1Cc1c(Cl)cccc1[N+](=O)[O-]
inactive: dose: 100.0 mg/kg/injection, schedule: Q01DX009 (ip), vehicle: Klucel (hydroxypropylcellulose) (HPC) 107 % of control | dose: 200.0 mg/kg/injection, schedule: Q01DX009 (ip), vehicle: Klucel (hydroxypropylcellulose) (HPC) 103 % of control | dose: 400.0 mg/kg/injection, schedule: Q01DX009 (ip), vehicle: Klucel (hydroxypropylcellulose) (HPC) 92 % of control

COc1ccccc1NC(=O)NCc1cccc2ccccc12
inactive: [17] 107 % of control | [18] 104 % of control | [19] 100 % of control

CCCCCC(C)(C)O
inactive: [9] 96 % of control | dose: 100.0 mg/kg/injection, schedule: Q01DX009 (ip), vehicle: saline 97 % of control | dose: 187.0 mg/kg/injection, schedule: Q01DX001 (ip), vehicle: saline 103 % of control | [10] 98 % of control | dose: 200.0 mg/kg/injection, schedule: Q01DX009 (ip), vehicle: saline 101 % of control | dose: 267.0 mg/kg/injection, schedule: Q01DX001 (ip), vehicle: saline 97 % of control | dose: 600.0 mg/kg/injection, schedule: Q01DX001 (ip), vehicle: saline 92 % of control

c1cc[n+](CCSCCSCC[n+]2ccccc2)cc1
inactive: dose: 3.12 mg/kg/injection, schedule: Q01DX009 (ip), vehicle: acetone 97 % of control | dose: 3.12 mg/kg/injection, schedule: Q04DX003 (ip), vehicle: saline 106 % of control | dose: 6.25 mg/kg/injection, schedule: Q01DX009 (ip), vehicle: acetone 95 % of control | dose: 6.25 mg/kg/injection, schedule: Q04DX003 (ip), vehicle: saline 101 % of control | dose: 12.5 mg/kg/injection, schedule: Q01DX001 (ip), vehicle: saline 105 % of control | dose: 12.5 mg/kg/injection, schedule: Q04DX003 (ip), vehicle: saline 97 % of control

Brc1cccc[n+]1CCCC[n+]1ccccc1Br
inactive: dose: 2.2 mg/kg/injection, schedule: Q01DX Z (ip), vehicle: saline 96 % of control | dose: 3.3 mg/kg/injection, schedule: Q01DX Z (ip), vehicle: saline 100 % of control | dose: 5.0 mg/kg/injection, schedule: Q01DX Z (ip), vehicle: saline 87 % of control | dose: 10.0 mg/kg/injection, schedule: Q01DX001 (ip), vehicle: saline 96 % of control | dose: 20.0 mg/kg/injection, schedule: Q01DX001 (ip), vehicle: saline 93 % of control

From PubChem BioAssay AID248 (DTP/NCI, 2004)
